According to patent US20240132475A1, “SUBSTITUTED PYRAZOLYL COMPOUNDS AS MALT-1 INHIBITORS” (AURIGENE ONCOLOGY LIMITED, priority 2021, published 2024):
pIC50: −log10 of the molar value.

Target: T1, MALT-1 (Isoform 1) (Homo sapiens, UniProt Q9UDY8)
T1 construct: using recombinant MALT-1 (Isoform 1, aa-840) generated in house; made in house
T1 sequence (Q9UDY8 1-824): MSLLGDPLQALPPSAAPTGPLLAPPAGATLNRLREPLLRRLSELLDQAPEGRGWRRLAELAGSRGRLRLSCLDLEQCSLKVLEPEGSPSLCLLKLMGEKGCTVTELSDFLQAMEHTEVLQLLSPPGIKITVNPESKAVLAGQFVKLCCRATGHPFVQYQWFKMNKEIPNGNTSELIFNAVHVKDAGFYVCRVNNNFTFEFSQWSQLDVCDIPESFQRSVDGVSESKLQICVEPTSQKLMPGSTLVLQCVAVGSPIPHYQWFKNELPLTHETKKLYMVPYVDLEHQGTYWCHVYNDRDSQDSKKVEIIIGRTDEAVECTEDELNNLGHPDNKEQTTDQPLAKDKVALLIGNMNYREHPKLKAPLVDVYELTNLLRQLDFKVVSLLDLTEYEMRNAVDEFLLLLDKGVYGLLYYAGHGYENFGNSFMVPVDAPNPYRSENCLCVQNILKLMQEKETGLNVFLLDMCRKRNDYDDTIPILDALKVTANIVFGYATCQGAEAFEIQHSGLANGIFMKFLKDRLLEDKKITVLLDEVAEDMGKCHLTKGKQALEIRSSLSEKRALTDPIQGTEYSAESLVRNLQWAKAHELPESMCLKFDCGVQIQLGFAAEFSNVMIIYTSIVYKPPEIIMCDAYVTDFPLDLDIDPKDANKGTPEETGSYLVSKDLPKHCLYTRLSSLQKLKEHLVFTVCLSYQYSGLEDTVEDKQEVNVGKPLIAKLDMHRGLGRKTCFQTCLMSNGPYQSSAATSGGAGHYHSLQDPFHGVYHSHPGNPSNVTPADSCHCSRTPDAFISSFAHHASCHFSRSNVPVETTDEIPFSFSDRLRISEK
Experiment: MALT-1 (Isoform 1) enzyme fluorescent biochemical assay
Details: for pIC50: dose-response, sigmoidal curve fit, reported as groups A, B, C; for inhibition at 1 µM: read-out: Percent Inhibition (1 μM)
Method: The potency of compounds to inhibit MALT-1 (Isoform 1) enzyme was tested in a Fluorescent assay using recombinant MALT-1 (Isoform 1, aa-840) generated in house. The assay buffer was 50 mM HEPES (pH 7.5), 100 mM NaCl, 10 mM DTT, 1 mM EDTA, 0.9 M sodium citrate, 0.01% CHAPS. 1.5 nM of MALT-1 enzyme was incubated with test compounds ([…]) (1% DMSO) in the presence of buffer for 30 minutes at 30° C. The protease reaction was initiated by adding […] of AC-LRSR-MAC (Peptide International, USA) substrate and incubated for 240 min. After 240 min incubation, fluorescence emission of the samples at 460 nm was measured at an excitation of 355 nm. The percent inhibition was calculated using the following formula: […]. IC50 values were determined by fitting the dose-response data to sigmoidal curve fitting equation using Graph pad prism software V8.
ND represents Not Determined.

[1] = test compound 1 μM, recombinant MALT-1 1.5 nM

SMILES	pIC50	inhibition at 1 µM [1] [%]	Percent Inhibition (1 μM) [1] [%]
N#Cc1cc(NC(=O)c2cnn(Cc3cccc(C(F)(F)F)c3)c2C(F)(F)F)cnc1-n1nccn1 [Compound 14, N-(5-cyano-6-(2H-1,2,3-triazol-2-yl)pyridin-3-y1)-5-(trifluoromethyl)-1-(3-(trifluoromethyl)benzyl)-1H-pyrazole-4-carboxamide]	< 6.00	67	–
N#Cc1cc(NC(=O)c2cnn(Cc3ccc(F)cc3)c2C(F)(F)F)cnc1-n1nccn1 [Compound 10, N-(5-cyano-6-(2H-1,2,3-triazol-2-yl)pyridin-3-yl)-1-(4-fluorobenzyl)-5-(trifluoromethyl)-1H-pyrazole-4-carboxamide]	< 6.00	44	–
O=C(Nc1ccnc(C(F)(F)F)c1)c1cnn(Cc2cccc(F)c2)c1C(F)(F)F [Compound 19, 1-(3-fluorobenzyl)-5-(trifluoromethyl)-N-(2-(trifluoromethyl)pyridin-4-yl)-1H-pyrazole-4-carboxamide]	< 6.00	22	–
O=C(Nc1cnc(C(=O)N2CCCC2)c(Cl)c1)c1cnn(Cc2cccc(F)c2Cl)c1C(F)(F)F [Compound 45, 1-(2-chloro-3-fluorobenzyl)-N-(5-chloro-6-(pyrrolidine-1-carbonyl)pyridin-3-yl)-5-(trifluoromethyl)-1H-pyrazole-4-carboxamide]	< 6.00	40	–
CC(c1ccccc1)n1ncc(C(=O)Nc2cnc(-n3nccn3)c(Cl)c2)c1C(F)(F)F (single isomer, unassigned) [Compound 5b]	> 6.60	–	99
N#Cc1cc(NC(=O)c2cnn(Cc3cccnc3)c2C(F)(F)F)cnc1-n1nccn1 [Compound 18, N-(5-cyano-6-(2H-1,2,3-triazol-2-yl)pyridin-3-yl)-1-(pyridin-3-ylmethyl)-5-(trifluoromethyl)-1H-pyrazole-4-carboxamide]	< 6.00	47	–
N#Cc1cc(NC(=O)c2cnn(Cc3cccc(F)c3Br)c2C(F)(F)F)cnc1-n1nccn1 [Compound 38, 1-(2-bromo-3-fluorobenzy1)-N-(5-cyano-6-(2H-1,2,3-triazol-2-yl)pyridin-3-yl)-5-(trifluoromethyl)-1H-pyrazole-4-carboxamide]	> 6.60	100	–
N#Cc1cc(NC(=O)c2cnn(Cc3ccc(F)c(Cl)c3)c2C(F)(F)F)cnc1-n1nccn1 [Compound 21, 1-(3-chloro-4-fluorobenzy1)-N-(5-cyano-6-(2H-1,2,3-triazol-2-yl)pyridin-3-yl)-5-(trifluoromethyl)-1H-pyrazole-4-carboxamide]	< 6.00	23	–
N#Cc1cc(NC(=O)c2cnn(Cc3cc(F)cc(F)c3)c2C(F)(F)F)cnc1-n1nccn1 [Compound 36, N-(5-cyano-6-(2H-1,2,3-triazol-2-y1)pyridin-3-yl)-1-(3,5-difluorobenzyl)-5-(trifluoromethyl)-1H-pyrazole-4-carboxamide]	6.00 to 6.60	86	–
COc1ncc(NC(=O)c2cnn(Cc3cccc(F)c3)c2C(F)(F)F)cc1Cl [Compound 22, N-(5-chloro-6-methoxypyridin-3-yl)-1-(3-fluorobenzyl)-5-(trifluoromethyl)-1H-pyrazole-4-carboxamide]	–	41	–
N#Cc1cc(NC(=O)c2cnn(Cc3ccccc3)c2C(F)(F)F)cnc1-n1nccn1 [Compound 7, 1-benzyl-N-(5-cyano-6-(2H-1,2,3-triazol-2-yl)pyridin-3-y1)-5-(trifluoromethyl)-1H-pyrazole-4-carboxamide]	6.00 to 6.60	88	–
N#Cc1cc(NC(=O)c2cnn(Cc3ccccc3Cl)c2C(F)(F)F)cnc1-n1nccn1 [Compound 20, 1-(2-chlorobenzyl)-N-(5-cyano-6-(2H-1,2,3-triazol-2-y1)pyridin-3-yl)-5-(trifluoromethyl)-1H-pyrazole-4-carboxamide]	< 6.00	46	–
O=C(Nc1cc(C(F)(F)F)ccn1)c1cnn(Cc2cccc(F)c2Cl)c1C(F)(F)F [Compound 46, 1-(2-chloro-3-fluorobenzyl)-5-(trifluoromethyl)-N-(4-(trifluoromethyl)pyridin-2-yl)-1H-pyrazole-4-carboxamide]	< 6.00	32	–
CC(c1cccc(Cl)c1)n1ncc(C(=O)Nc2cnc(-n3nccn3)c(C#N)c2)c1C(F)(F)F (stereo not drawn) [Compound 51, 1-(1-(3-chlorophenyl)ethyl)-N-(5-cyano-6-(2H-1,2,3-triazol-2-y1)pyridin-3-y1)-5-(trifluoromethyl)-1H-pyrazole-4-carboxamide]	> 6.60	100	–
